In brackets after ≈: the same amount, converted by molar mass. Positions of bridges follow the written chain, without caps; N, C: chain ends. Non-standard residues stand in square brackets, D forms with d. Residues, ends and D or L forms follow the SMILES beside them. *: point of attachment. Heptanoyl(6-Me) = CC(C)CCCCC(=O)*; X1 = CC[C@H](C)CCCCC(=O)*; Dab = NCC[C@H](N)C(=O)O
System: Pseudomonas aeruginosa
Test: Antibacterial activity against Pseudomonas aeruginosa PAO1 assessed as inhibition of bacterial growth incubated for 24 hrs by broth microdilution method
Assay type: functional
Conditions: read-out: MIC100

SMILES	MIC
CC(C)CCCCC(=O)N[C@@H](CCN)C(=O)N[C@H](C(=O)N[C@@H](CCN)C(=O)N[C@H]1CCNC(=O)[C@H]([C@@H](C)O)NC(=O)[C@H](CCN)NC(=O)[C@H](CCN)NC(=O)[C@H](CC(C)C)NC(=O)[C@@H](Cc2ccccc2)NC(=O)[C@H](CCN)NC1=O)[C@@H](C)O [POLYMYXIN B2] ({Heptanoyl(6-Me)}-[Dab]T[Dab][Dab][Dab][dF]L[Dab][Dab]T; lactam 4-C)	1 µg/mL (≈ 0.841 µM)
CC[C@H](C)CCCCC(=O)N[C@@H](CCN)C(=O)N[C@H](C(=O)N[C@@H](CCN)C(=O)N[C@H]1CCNC(=O)[C@H]([C@@H](C)O)NC(=O)[C@H](CCN)NC(=O)[C@H](CCN)NC(=O)[C@H](CC(C)C)NC(=O)[C@@H](Cc2ccccc2)NC(=O)[C@H](CCN)NC1=O)[C@@H](C)OC(=O)[C@@H](N)[C@@H](C)CC	2 µg/mL (≈ 1.52 µM)
CC[C@H](C)CCCCC(=O)N[C@@H](CCN)C(=O)N[C@H](C(=O)N[C@@H](CCN)C(=O)N[C@H]1CCNC(=O)[C@H]([C@@H](C)O)NC(=O)[C@H](CCN)NC(=O)[C@H](CCN)NC(=O)[C@H](CC(C)C)NC(=O)[C@@H](Cc2ccccc2)NC(=O)[C@H](CCN)NC1=O)[C@@H](C)OC(=O)[C@@H](N)C(C)C	2 µg/mL (≈ 1.54 µM)
CC(NCC[C@H](NC(=O)[C@H](CCN)NC(=O)CCCCC(C)C)C(=O)N[C@@H](CCN)C(=O)N[C@H]1CCNC(=O)[C@H]([C@@H](C)O)NC(=O)[C@H](CCN)NC(=O)[C@H](CCN)NC(=O)[C@H](CC(C)C)NC(=O)[C@@H](Cc2ccccc2)NC(=O)[C@H](CCN)NC1=O)=C1C(=O)CC(C)(C)CC1=O	8 µg/mL (≈ 5.91 µM)
CC(C)CCCCC(=O)N[C@@H](CCN)C(=O)N[C@H](C(=O)N[C@@H](CCN)C(=O)N[C@H]1CCNC(=O)[C@H]([C@@H](C)O)NC(=O)[C@H](CCN)NC(=O)[C@H](CCN)NC(=O)[C@H](CC(C)C)NC(=O)[C@@H](Cc2ccccc2)NC(=O)[C@H](CCN)NC1=O)[C@@H](C)OC(=O)[C@@H](N)CC(=O)O	2 µg/mL (≈ 1.53 µM)
CC[C@H](C)CCCCC(=O)N[C@@H](CCN)C(=O)N[C@H](C(=O)N[C@@H](CCN)C(=O)N[C@H]1CCNC(=O)[C@H]([C@@H](C)O)NC(=O)[C@H](CCN)NC(=O)[C@H](CCN)NC(=O)[C@H](CC(C)C)NC(=O)[C@@H](Cc2ccccc2)NC(=O)[C@H](CCN)NC1=O)[C@@H](C)OC(=O)[C@@H](N)CS	2 µg/mL (≈ 1.53 µM)
CC[C@H](C)CCCCC(=O)N[C@@H](CCN)C(=O)N[C@H](C(=O)N[C@@H](CCN)C(=O)N[C@H]1CCNC(=O)[C@H]([C@@H](C)O)NC(=O)[C@H](CCN)NC(=O)[C@H](CCN)NC(=O)[C@H](CC(C)C)NC(=O)[C@@H](Cc2ccccc2)NC(=O)[C@H](CCN)NC1=O)[C@@H](C)OC(=O)[C@H](C)N	4 µg/mL (≈ 3.14 µM)
CC[C@H](C)CCCCC(=O)N[C@@H](CCN)C(=O)N[C@H](C(=O)N[C@@H](CCN)C(=O)N[C@H]1CCNC(=O)[C@H]([C@@H](C)O)NC(=O)[C@H](CCN)NC(=O)[C@H](CCN)NC(=O)[C@H](CC(C)C)NC(=O)[C@@H](Cc2ccccc2)NC(=O)[C@H](CCN)NC1=O)[C@@H](C)OC(=O)[C@@H](N)CC(C)C	4 µg/mL (≈ 3.04 µM)
CC(C)CCCCC(=O)N[C@@H](CCN)C(=O)N[C@@H](CCN)C(=O)N[C@@H](CCN)C(=O)N[C@H]1CCNC(=O)[C@H]([C@@H](C)O)NC(=O)[C@H](CCN)NC(=O)[C@H](CCN)NC(=O)[C@H](CC(C)C)NC(=O)[C@@H](Cc2ccccc2)NC(=O)[C@H](CCN)NC1=O	128 µg/mL (≈ 108 µM)
CC[C@H](C)[C@H](N)C(=O)O[C@H](C)[C@H](NC(=O)[C@H](CCN)NC(=O)CCCCC(C)C)C(=O)N[C@@H](CCN)C(=O)N[C@H]1CCNC(=O)[C@H]([C@@H](C)O)NC(=O)[C@H](CCN)NC(=O)[C@H](CCN)NC(=O)[C@H](CC(C)C)NC(=O)[C@@H](Cc2ccccc2)NC(=O)[C@H](CCN)NC1=O	2 µg/mL (≈ 1.54 µM)
CC[C@H](C)CCCCC(=O)N[C@@H](CCN)C(=O)N[C@H](C(=O)N[C@@H](CCN)C(=O)N[C@H]1CCNC(=O)[C@H]([C@@H](C)O)NC(=O)[C@H](CCN)NC(=O)[C@H](CCN)NC(=O)[C@H](CC(C)C)NC(=O)[C@@H](Cc2ccccc2)NC(=O)[C@H](CCN)NC1=O)[C@@H](C)O (X1-[Dab]T[Dab][Dab][Dab][dF]L[Dab][Dab]T; lactam 4-C)	2 µg/mL (≈ 1.66 µM)
CC(C)CCCCC(=O)N[C@@H](CCN)C(=O)N[C@@H](CCC(N)=O)C(=O)N[C@@H](CCN)C(=O)N[C@H]1CCNC(=O)[C@H]([C@@H](C)O)NC(=O)[C@H](CCN)NC(=O)[C@H](CCN)NC(=O)[C@H](CC(C)C)NC(=O)[C@@H](Cc2ccccc2)NC(=O)[C@H](CCN)NC1=O	128 µg/mL (≈ 105 µM)
CC[C@H](C)CCCCC(=O)N[C@@H](CCN)C(=O)N[C@H](C(=O)N[C@@H](CCN)C(=O)N[C@H]1CCNC(=O)[C@H]([C@@H](C)OC(=O)[C@@H]2CCCN2)NC(=O)[C@H](CCN)NC(=O)[C@H](CCN)NC(=O)[C@H](CC(C)C)NC(=O)[C@@H](Cc2ccccc2)NC(=O)[C@H](CCN)NC1=O)[C@@H](C)OC(=O)[C@@H]1CCCN1	2 µg/mL (≈ 1.43 µM)
CC[C@H](C)CCCCC(=O)N[C@@H](CCN)C(=O)N[C@H](C(=O)N[C@@H](CCN)C(=O)N[C@H]1CCNC(=O)[C@H]([C@@H](C)O)NC(=O)[C@H](CCN)NC(=O)[C@H](CCN)NC(=O)[C@H](CC(C)C)NC(=O)[C@@H](Cc2ccccc2)NC(=O)[C@H](CCN)NC1=O)[C@@H](C)OC(=O)[C@@H](N)[C@@H](C)O	2 µg/mL (≈ 1.53 µM)
CC[C@H](C)CCCCC(=O)N[C@@H](CCN)C(=O)N[C@H](C(=O)N[C@@H](CCN)C(=O)N[C@H]1CCNC(=O)[C@H]([C@@H](C)O)NC(=O)[C@H](CCN)NC(=O)[C@H](CCN)NC(=O)[C@H](CC(C)C)NC(=O)[C@@H](Cc2ccccc2)NC(=O)[C@H](CCN)NC1=O)[C@@H](C)OC(=O)[C@@H](N)Cc1c[nH]c2ccccc12	2 µg/mL (≈ 1.44 µM)
CC[C@H](C)CCCCC(=O)N[C@@H](CCN)C(=O)N[C@H](C(=O)N[C@@H](CCN)C(=O)N[C@H]1CCNC(=O)[C@H]([C@@H](C)O)NC(=O)[C@H](CCN)NC(=O)[C@H](CCN)NC(=O)[C@H](CC(C)C)NC(=O)[C@@H](Cc2ccccc2)NC(=O)[C@H](CCN)NC1=O)[C@@H](C)OC(=O)[C@@H](N)CC(N)=O	2 µg/mL (≈ 1.52 µM)
CC(C)CCCCC(=O)N[C@@H](CCN)C(=O)N[C@H](C(=O)N[C@@H](CCN)C(=O)N[C@H]1CCNC(=O)[C@H]([C@@H](C)OC(=O)[C@H](C)N)NC(=O)[C@H](CCN)NC(=O)[C@H](CCN)NC(=O)[C@H](CC(C)C)NC(=O)[C@@H](Cc2ccccc2)NC(=O)[C@H](CCN)NC1=O)[C@@H](C)OC(=O)[C@H](C)N	2 µg/mL (≈ 1.5 µM)
CCCCCCCC(=O)N[C@@H](CCN)C(=O)N[C@@H](CS)C(=O)N[C@@H](CCN)C(=O)N[C@H]1CCNC(=O)[C@H]([C@@H](C)O)NC(=O)[C@H](CCN)NC(=O)[C@H](CCN)NC(=O)[C@H](CC(C)C)NC(=O)[C@@H](Cc2ccccc2)NC(=O)[C@H](CCN)NC1=O	8 µg/mL (≈ 6.71 µM)
CC[C@H](C)CCCCC(=O)N[C@@H](CCN)C(=O)N[C@H](C(=O)N[C@@H](CCN)C(=O)N[C@H]1CCNC(=O)[C@H]([C@@H](C)O)NC(=O)[C@H](CCN)NC(=O)[C@H](CCN)NC(=O)[C@H](CC(C)C)NC(=O)[C@@H](Cc2ccccc2)NC(=O)[C@H](CCN)NC1=O)[C@@H](C)OC(=O)[C@@H]1CCCN1	2 µg/mL (≈ 1.54 µM)
CCCCCCCC(=O)N[C@@H](CCN)C(=O)N[C@H](C(=O)N[C@@H](CCN)C(=O)N[C@H]1CCNC(=O)[C@H](CC(=O)O)NC(=O)[C@H](CCN)NC(=O)[C@H](CCN)NC(=O)[C@H](CC(C)C)NC(=O)[C@@H](Cc2ccccc2)NC(=O)[C@H](CCN)NC1=O)[C@@H](C)O	64 µg/mL (≈ 53.2 µM)

— ChEMBL document CHEMBL4825673, “Total and Semisyntheses of Polymyxin Analogues with 2-Thr or 10-Thr Modifications to Decipher the Structure-Activity Relationship and Improve the Antibacterial Activity” (J Med Chem, 2021)
